Data as given in the NIST ThermoML archive (doi:10.1016/j.jct.2018.12.002).
± gives the expanded uncertainty stated by the source.

Assay: molar heat capacity at constant pressure
Details: 1943 K; 101.33 kPa; Liquid; Levitation methods

## [Ti] [titanium]
  molar heat capacity at constant pressure: 44.9 ± 4.3 J/K/mol
